Test results taken from patent publication US10875851B2, “Factor XIIa inhibitors” (Merck Sharp & Dohme Corp., priority 2016, dated 2020).

Each compound was assayed against human Factor XIIa (Homo sapiens (Human), UniProt P00748) (assay: Factor XIIa Assay). Conditions: purified human Factor XIIa 500 pM; substrate n-Acetyl-Lys-Pro-Arg-AFC 100 μM; pH 7.4; read-out: FXIIa IC50.
Format: biochemical
In short: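 Purified human FXIIa at 500 pM final with 100 μM n-Acetyl-Lys-Pro-Arg-AFC in 50 mM HEPES, 150 mM NaCl, 5 mM CaCl2, 0.1% PEG 8000, pH 7.4, at room temperature or 37° C. Initial fluorogenic hydrolysis rates measured after enzyme–inhibitor equilibration; IC50 taken where Vi=Vo/2.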

human Factor XIIa, sequence (P00748 373-615): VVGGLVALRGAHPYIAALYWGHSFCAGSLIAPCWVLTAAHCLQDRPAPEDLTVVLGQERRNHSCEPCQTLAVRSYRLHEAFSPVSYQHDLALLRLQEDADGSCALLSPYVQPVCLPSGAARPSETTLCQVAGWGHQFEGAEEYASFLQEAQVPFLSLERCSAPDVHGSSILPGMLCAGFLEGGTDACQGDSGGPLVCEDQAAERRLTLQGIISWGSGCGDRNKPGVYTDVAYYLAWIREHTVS

IC50 [nM] | SMILES
1.7 | CC(C)N[C@H](CCCCN1CCCCC1)C(=O)N1CCN(C2=N[C@@H](C)[C@H](c3ccccc3)O2)C[C@H]1C(=O)NCc1ccc(CN)c(Cl)c1 [Example 179, (2S)-N-[4-(aminomethyl)-3-chlorobenzyl]-1-[N-(1-methylethyl)-6-piperidin-1-yl-D-norleucyl]-4-[(4S,5S)-4-methyl-5-phenyl-4,5-dihydro-1,3-oxazol-2-yl]piperazine-2-carboxamide]
52.3 | CC1(C)N=C(N2CCN(C(=O)[C@H](N)CCCCN3CCCCC3)[C@H](C(=O)NCc3cccc(Cl)c3)C2)OC1c1ccccc1 (stereo partly drawn) [Example 156, (2S)-N-(3-chlorobenzyl)-4-(4,4-dimethyl-5-phenyl-4,5-dihydro-1,3-oxazol-2-yl)-1-(6-piperidin-1-yl-D-norleucyl)piperazine-2-carboxamide]
8.2 | CC(C)N[C@H](CCCCN1CCCCC1)C(=O)N1CCN(C2=N[C@@H](C)[C@H](c3cccc(Br)c3)O2)C[C@H]1C(=O)NCc1cccc(Cl)c1 [Example 168, (2S)-4-[(4S,5S)-5-(3-bromophenyl)-4-methyl-4,5-dihydro-1,3-oxazol-2-yl]-N-(3-chlorobenzyl)-1-[N-(1-methylethyl)-6-piperidin-1-yl-D-norleucyl]piperazine-2-carboxamide]
3.9 | CC(C)N[C@H](CCCCN1CCCCC1)C(=O)N1CCN(C2=N[C@@H](C)[C@H](c3ccccc3)O2)C[C@H]1C(=O)NCc1cc2cnccc2s1 [Example 173, (2S)-1-[N-(1-methylethyl)-6-piperidin-1-yl-D-norleucyl]-4-[(4S,5S)-4-methyl-5-phenyl-4,5-dihydro-1,3-oxazol-2-yl]-N-(thieno[3,2-c]pyridin-2-ylmethyl)piperazine-2-carboxamide]
44.1 | CN(C)CCCC[C@H](C(=O)N1CCN(C2=NC(C)(C)C(c3ccccc3)O2)C[C@H]1C(=O)NCc1cc2cnccc2s1)N(C)C (stereo partly drawn) [Example 147, (2S)-4-(4,4-dimethyl-5-phenyl-4,5-dihydro-1,3-oxazol-2-yl)-1-(N^2,N^2,N^6,N^6-tetramethyl-D-lysyl)-N-(thieno[3,2-c]pyridin-2-ylmethyl)piperazine-2-carboxamide]
14.2 | C[C@H]1N=C(N2CCN(C(=O)[C@@H](CCCCNS(C)(=O)=O)NC3CCCCC3)[C@H](C(=O)NCc3cccs3)C2)O[C@H]1c1ccccc1 [Example 151, (2S)-1-[N^2-cyclohexyl-N^6-(methylsulfonyl)-D-lysyl]-4-[(4R,5S)-4-methyl-5-phenyl-4,5-dihydro-1,3-oxazol-2-yl]-N-(thiophen-2-ylmethyl)piperazine-2-carboxamide]
10.3 | Cc1cccc([C@@H]2OC(N3CCN(C(=O)[C@@H](CCCCNS(C)(=O)=O)NC4CCCCC4)[C@H](C(=O)NCc4cccs4)C3)=N[C@H]2C)c1 [Example 134, (2S)-1-[N^2-cyclohexyl-N^6-(methylsulfonyl)-D-lysyl]-4-[(4S,5S)-4-methyl-5-(3-methylphenyl)-4,5-dihydro-1,3-oxazol-2-yl]-N-(thiophen-2-ylmethyl)piperazine-2-carboxamide]
27.4 | CC(C)N[C@H](CCCCN1CCCCC1)C(=O)N1CCN(C2=NC(C)(C)C(c3ccccc3)O2)C[C@H]1C(=O)NCc1cc2cnccc2s1 (stereo partly drawn) [Example 159, (2S)-4-(4,4-dimethyl-5-phenyl-4,5-dihydro-1,3-oxazol-2-yl)-1-[N-(1-methylethyl)-6-piperidin-1-yl-D-norleucyl]-N-(thieno[3,2-c]pyridin-2-ylmethyl)piperazine-2-carboxamide]
54.8 | CC1(C)N=C(N2CCN(C(=O)[C@H](N)CCCCN3CCCCC3)[C@H](C(=O)NCc3cc(Cl)ccc3-n3cnnn3)C2)OC1c1ccccc1 (stereo partly drawn) [Example 157, (2S)-N-[5-chloro-2-(1H-tetrazol-1-yl)benzyl]-4-(4,4-dimethyl-5-phenyl-4,5-dihydro-1,3-oxazol-2-yl)-1-(6-piperidin-1-yl-D-norleucyl)piperazine-2-carboxamide]
2.4 | C[C@@H]1N=C(N2CCN(C(=O)[C@@H](CC3CCN(C4CCCCC4)CC3)NC3CCCCC3)[C@H](C(=O)NCc3cccs3)C2)O[C@H]1c1ccccc1 [Example 183, (2S)-[N-cyclohexyl-3-(1-cyclohexylpiperidin-4-yl)-D-alanyl]-4-[(4S,5S)-4-methyl-5-phenyl-4,5-dihydro-1,3-oxazol-2-yl]-N-(thiophen-2-ylmethyl)piperazine-2-carboxamide]
34.9 | CN(C)CCCC[C@H](C(=O)N1CCN(C2=NC(C)(C)C(c3ccccc3)O2)C[C@H]1C(=O)NCc1ccc(CN)c(Cl)c1)N(C)C (stereo partly drawn) [Example 149, (2S)-N-[4-(aminomethyl)-3-chlorobenzyl]-4-(4,4-dimethyl-5-phenyl-4,5-dihydro-1,3-oxazol-2-yl)-1-(N^2,N^2,N^6,N^6-tetramethyl-D-lysyl)piperazine-2-carboxamide]
1.8 | C[C@@H]1N=C(N2CCN(C(=O)[C@@H](CCCCN(C)C)N(C)C3CCC4(CC3)CCN(Cc3ccccc3)C4)[C@H](C(=O)NCc3cccs3)C2)O[C@H]1c1ccccc1 (stereo partly drawn) [Example 131, (2S)-1-[N^2-(2-benzyl-2-azaspiro[4.5]dec-8-yl)-N^2,N^6,N^6-trimethyl-D-lysl]-4-[(4S,5S)-4-methyl-5-phenyl-4,5-dihydro-1,3-oxazol-2-yl]-N-(thiophen-2-ylmethyl)piperazine-2-carboxamide]

More lines, now with the values behind:

SMILES | IC50 [nM]
COC(N)c1cccc(OC(=O)N2CCN(C(=O)[C@@H](CCCCNS(C)(=O)=O)NC3CCC4(CC3)CCN(Cc3ccccc3)C4)[C@H](C(=O)NCc3cccs3)C2)c1 (stereo partly drawn) [Example 75, 3-[amino(methoxy)methyl]phenyl (3S)-4-[N^2-(2-benzyl-2-azaspiro[4.5]dec-8-yl)-N^6-(methylsulfonyl)-D-lysyl]-3-[(thiophen-2-ylmethyl)carbamoyl]piperazine-1-carboxylate] | 5.7
C[C@@H]1N=C(N2CCN(C(=O)[C@@H](CCCCNS(C)(=O)=O)NC3CCCCC3)[C@H](C(=O)NCc3cccs3)C2)O[C@H]1c1cccc(CN)c1 [Example 117, (2S)-4-{(4S,5S)-5-[3-(aminomethyl)phenyl]-4-methyl-4,5-dihydro-1,3-oxazol-2-yl}-1-[N^2-cyclohexyl-N^6-(methylsulfonyl)-D-lysyl]-N-(thiophen-2-ylmethyl)piperazine-2-carboxamide] | 5.2
CN(C)CCCC[C@@H](NC1CCC2(CC1)CCN(Cc1ccccc1)C2)C(=O)N1CCN(C(=O)Oc2ccccc2Cl)C[C@H]1C(=O)NCc1cccs1 (stereo partly drawn) [Example 90, 2-chlorophenyl (3S)-4-[N^2-(2-benzyl-2-azaspiro[4.5]dec-8-yl)-N^6,N^6-dimethyl-D-lysyl]-3-[(thiophen-2-ylmethyl)carbamoyl]piperazine-1-carboxylate] | 0.7
COc1cc(CNC(=O)[C@@H]2CN(C(=O)Oc3cccc4ccccc34)CCN2C(=O)[C@@H](CC2CCCCC2)NC2CCC3(CC2)CCN(Cc2ccccc2)C3)ccc1CN (stereo partly drawn) [Example 28, naphthalen-1-yl (3S)-3-{[4-(aminomethyl)-3-methoxybenzyl]carbamoyl}-4-[N-(2-benzyl-2-azaspiro[4.5]dec-8-yl)-3-cyclohexyl-D-alanyl]piperazine-1-carboxylate] | 3.9
CS(=O)(=O)NCCCC[C@@H](NC1CCCC1)C(=O)N1CCN(C(=O)Oc2ccc3ccccc3c2Cl)C[C@H]1C(=O)NCc1cccs1 [Example 113, 1-chloronaphthalen-2-yl (3S)-4-[N^2-cyclopentyl-N~6~-(methylsulfonyl)-D-lysyl]-3-[(thiophen-2-ylmethyl)carbamoyl]piperazine-1-carboxylate] | 8.4
CS(=O)(=O)NCCCC[C@@H](NC1CCCCC1)C(=O)N1CCN(C2=NCC3(CCCCC3)O2)C[C@H]1C(=O)NCc1cccs1 [Example 126, (2S)-1-[N^2-cyclohexyl-N^6-(methylsulfonyl)-D-lysyl]-4-(1-oxa-3-azaspiro[4.5]dec-2-en-2-yl)-N-(thiophen-2-ylmethyl)piperazine-2-carboxamide] | 21.1
COc1cc(CNC(=O)[C@@H]2CN(C(=O)Oc3ccc4ccccc4c3Cl)CCN2C(=O)[C@@H](CCCCN(C)C)N(C)C2CCC3(CC2)CCN(Cc2ccccc2)C3)ccc1CN (stereo partly drawn) [Example 87, 1-chloronaphthalen-2-yl (3S)-3-{[4-(aminomethyl)-3-methoxybenzyl]carbamoyl}-4-[N^2-(2-benzyl-2-azaspiro[4.5]dec-8-yl)-N^2,N^6,N^6-trimethyl-D-lysyl]piperazine-1-carboxylate] | 1
Cc1ccc(OC(=O)N2CCN(C(=O)[C@@H](CC3CCCCC3)NC3CCCCC3)[C@H](C(=O)NCc3cccs3)C2)c(Cl)c1C [Example 94, 2-chloro-3,4-dimethylphenyl (3S)-4-(N,3-dicyclohexyl-D-alanyl)-3-[(thiophen-2-ylmethyl)carbamoyl]piperazine-1-carboxylate] | 7.5
Cc1ccc(OC(=O)N2CCN(C(=O)[C@H](N)CCCCN3CCCCC3)[C@H](C(=O)NCc3cccs3)C2)c(Cl)c1C [Example 111, 2-chloro-3,4-dimethylphenyl (3S)-4-(6-piperidin-1-yl-D-norleucyl)-3-[(thiophen-2-ylmethyl)carbamoyl]piperazine-1-carboxylate] | 5
Cc1ccc(OC(=O)N2CCN(C(=O)[C@@H](CCCCN3CCCC3)NC3CCC4(CC3)CCN(Cc3ccccc3)C4)[C@H](C(=O)NCc3cccs3)C2)c(Cl)c1C (stereo partly drawn) [Example 109, 2-chloro-3,4-dimethylphenyl (3S)-4-[N-(2-benzyl-2-azaspiro[4.5]dec-8-yl)-6-pyrrolidin-1-yl-D-norleucyl]-3-[(thiophen-2-ylmethyl)carbamoyl]piperazine-1-carboxylate] | 1
C[C@@H]1N=C(N2CCN(C(=O)[C@@H](CCCCNS(C)(=O)=O)NC3CCC4(CC3)CCN(Cc3ccccc3)C4)[C@H](C(=O)NCc3cccs3)C2)O[C@H]1c1ccccc1 (stereo partly drawn) [Example 128, (2S)-1-[N^2-(2-benzyl-2-azaspiro[4.5]dec-8-yl)-N^6-(methylsulfonyl)-D-lysyl]-4-[(4S,5S)-4-methyl-5-phenyl-4,5-dihydro-1,3-oxazol-2-yl]-N-(thiophen-2-ylmethyl)piperazine-2-carboxamide] | 10.2
